The source of these data is BindingDB's records for doi:10.1016/j.ejmech.2019.02.016 (National Health Research Institutes, 2019).

SMILES strings stand for the structures.

A short description of this test: Inhibition of NS5A in HCV genotype 1b infected in human HuH7 replicon cells assessed as reduction in subgenomic viral RNA replication treated for 2 days followed by compound washout and subsequent compound dosing measured after 1 day by SEAP reporter gene assay.
Usually EC50 stands for the concentration giving half of the maximal effect. Take `O=C(N[C@@H](C(=O)N1CCC[C@H]1c1ncc(-c2ccc(-c3ccc(-c4cnc([C@@H]5CCCN5C(=O)[C@H](NC(=O)C5CCCC5)c5ccccc5)s4)cc3)cc2)s1)c1ccccc1)C1CCCC1`: the EC50 was 0.006 nM. The result for `CC(C)(C)C(=O)N[C@@H](C(=O)N1CCC[C@H]1c1ncc(-c2ccc(-c3ccc(-c4cnc([C@@H]5CCCN5C(=O)[C@H](NC(=O)C(C)(C)C)c5ccccc5)s4)cc3)cc2)s1)c1ccccc1` reads 1.4 nM. The result for `CCCCCC(=O)N[C@@H](C(=O)N1CCC[C@H]1c1ncc(-c2ccc(-c3ccc(-c4cnc([C@@H]5CCCN5C(=O)[C@H](NC(=O)CCCCC)c5ccccc5)s4)cc3)cc2)s1)c1ccccc1` reads 0.063 nM; that for `CCCCC(=O)N[C@@H](C(=O)N1CCC[C@H]1c1ncc(-c2ccc(-c3ccc(-c4cnc([C@@H]5CCCN5C(=O)[C@H](NC(=O)CCCC)c5ccccc5)s4)cc3)cc2)s1)c1ccccc1`, 0.031 nM; that for `CCC(=O)N[C@@H](C(=O)N1CCC[C@H]1c1ncc(-c2ccc(-c3ccc(-c4cnc([C@@H]5CCCN5C(=O)[C@H](NC(=O)CC)c5ccccc5)s4)cc3)cc2)s1)c1ccccc1`, 0.016 nM. The result for `CC(=O)N[C@@H](C(=O)N1CCC[C@H]1c1ncc(-c2ccc(-c3ccc(-c4cnc([C@@H]5CCCN5C(=O)[C@H](NC(C)=O)c5ccccc5)s4)cc3)cc2)s1)c1ccccc1` reads 0.02 nM; that for `COC(=O)N[C@H](C(=O)N1CCC[C@H]1c1ncc(-c2ccc(-c3ccc(-c4cnc([C@@H]5CCCN5C(=O)[C@@H](NC(=O)OC)C(C)C)s4)cc3)cc2)s1)C(C)C`, 56 nM; that for `CC[C@H](NC(=O)OC)C(=O)N1CCC[C@H]1c1ncc(-c2ccc(-c3ccc(-c4cnc([C@@H]5CCCN5C(=O)[C@H](CC)NC(=O)OC)s4)cc3)cc2)s1`, 57 nM. For `COC(=O)N[C@H](C(=O)N1CCC[C@H]1c1ncc(-c2ccc(-c3ccc(-c4cnc([C@@H]5CCCN5C(=O)[C@@H](NC(=O)OC)C(C)(C)C)s4)cc3)cc2)s1)C(C)(C)C`, the EC50 stood at 471 nM. As to `CCCC[C@@H](NC(=O)C1CC1)C(=O)N1CCC[C@H]1c1ncc(-c2ccc(-c3ccc(-c4cnc([C@@H]5CCCN5C(=O)[C@@H](CCCC)NC(=O)C5CC5)s4)cc3)cc2)s1`, the EC50 was found to be 358 nM. The same measure for `CN1CCN(CCC(=O)N[C@H](C(=O)N2CCC[C@H]2c2ncc(-c3ccc(-c4ccc(-c5cnc([C@@H]6CCCN6C(=O)[C@H](NC(=O)CCN6CCN(C)CC6)c6ccccc6)s5)cc4)cc3)s2)c2ccccc2)CC1`: 102 nM; for `CN(C)CCC(=O)N[C@H](C(=O)N1CCC[C@H]1c1ncc(-c2ccc(-c3ccc(-c4cnc([C@@H]5CCCN5C(=O)[C@H](NC(=O)CCN(C)C)c5ccccc5)s4)cc3)cc2)s1)c1ccccc1`: 6.9 nM. The same measure for `O=C(N[C@H](C(=O)N1CCC[C@H]1c1ncc(-c2ccc(-c3ccc(-c4cnc([C@@H]5CCCN5C(=O)[C@H](NC(=O)c5ccsc5)c5ccccc5)s4)cc3)cc2)s1)c1ccccc1)c1ccsc1`: 122 nM.

On to `O=C(N[C@H](C(=O)N1CCC[C@H]1c1ncc(-c2ccc(-c3ccc(-c4cnc([C@@H]5CCCN5C(=O)[C@H](NC(=O)c5ccccn5)c5ccccc5)s4)cc3)cc2)s1)c1ccccc1)c1ccccn1`, for which the EC50 was 2640 nM.

Regarding `O=C(N[C@H](C(=O)N1CCC[C@H]1c1ncc(-c2ccc(-c3ccc(-c4cnc([C@@H]5CCCN5C(=O)[C@H](NC(=O)C5CCCC5)c5ccccc5)s4)cc3)cc2)s1)c1ccccc1)C1CCCC1`, the EC50 worked out at 1.1 nM.

In the case of `CCCCCC(=O)N[C@H](C(=O)N1CCC[C@H]1c1ncc(-c2ccc(-c3ccc(-c4cnc([C@@H]5CCCN5C(=O)[C@H](NC(=O)CCCCC)c5ccccc5)s4)cc3)cc2)s1)c1ccccc1`, the EC50 turned out to be 2.4 nM. The same measure for `O=C(CCN1CCOCC1)N[C@@H](C(=O)N1CCC[C@H]1c1ncc(-c2ccc(-c3ccc(-c4cnc([C@@H]5CCCN5C(=O)[C@H](NC(=O)CCN5CCOCC5)c5ccccc5)s4)cc3)cc2)s1)c1ccccc1`: 0.2 nM. Regarding `O=C(CCn1cccc1)N[C@@H](C(=O)N1CCC[C@H]1c1ncc(-c2ccc(-c3ccc(-c4cnc([C@@H]5CCCN5C(=O)[C@H](NC(=O)CCn5cccc5)c5ccccc5)s4)cc3)cc2)s1)c1ccccc1`, the EC50 came to 0.017 nM. As for `O=C(N[C@@H](C(=O)N1CCC[C@H]1c1ncc(-c2ccc(-c3ccc(-c4cnc([C@@H]5CCCN5C(=O)[C@H](NC(=O)c5ccoc5)c5ccccc5)s4)cc3)cc2)s1)c1ccccc1)c1ccoc1`, the EC50 was found to be 0.08 nM. Take `O=C(Cc1ccccc1)N[C@@H](C(=O)N1CCC[C@H]1c1ncc(-c2ccc(-c3ccc(-c4cnc([C@@H]5CCCN5C(=O)[C@H](NC(=O)Cc5ccccc5)c5ccccc5)s4)cc3)cc2)s1)c1ccccc1`: the 50% effective concentration (EC50) turned out to be 0.13 nM. The same measure for `O=C(N[C@@H](C(=O)N1CCC[C@H]1c1ncc(-c2ccc(-c3ccc(-c4cnc([C@@H]5CCCN5C(=O)[C@H](NC(=O)C5CC5)c5ccccc5)s4)cc3)cc2)s1)c1ccccc1)C1CC1`: 0.003 nM. The same measure for `CCCC(=O)N[C@@H](C(=O)N1CCC[C@H]1c1ncc(-c2ccc(-c3ccc(-c4cnc([C@@H]5CCCN5C(=O)[C@H](NC(=O)CCC)c5ccccc5)s4)cc3)cc2)s1)c1ccccc1`: 0.013 nM.

For `CS(=O)(=O)N[C@@H](C(=O)N1CCC[C@H]1c1ncc(-c2ccc(-c3ccc(-c4cnc([C@@H]5CCCN5C(=O)[C@H](NS(C)(=O)=O)c5ccccc5)s4)cc3)cc2)s1)c1ccccc1`, the EC50 was determined as 3.4 nM. The same measure for `CCCC[C@H](NC(=O)OC)C(=O)N1CCC[C@H]1c1ncc(-c2ccc(-c3ccc(-c4cnc([C@@H]5CCCN5C(=O)[C@H](CCCC)NC(=O)OC)s4)cc3)cc2)s1`: 237 nM; for `O=C(CCN1CCCC1)N[C@@H](C(=O)N1CCC[C@H]1c1ncc(-c2ccc(-c3ccc(-c4cnc([C@@H]5CCCN5C(=O)[C@H](NC(=O)CCN5CCCC5)c5ccccc5)s4)cc3)cc2)s1)c1ccccc1`: 4 nM.

On to `C[C@@H](NC(=O)C1CC1)C(=O)N1CCC[C@H]1c1ncc(-c2ccc(-c3ccc(-c4cnc([C@@H]5CCCN5C(=O)[C@@H](C)NC(=O)C5CC5)s4)cc3)cc2)s1`, for which the EC50 turned out to be 115 nM.

As for `O=C(CCN1CCCCC1)N[C@@H](C(=O)N1CCC[C@H]1c1ncc(-c2ccc(-c3ccc(-c4cnc([C@@H]5CCCN5C(=O)[C@H](NC(=O)CCN5CCCCC5)c5ccccc5)s4)cc3)cc2)s1)c1ccccc1`, the EC50 was determined as 0.89 nM. The result for `O=C(N[C@@H](C(=O)N1CCC[C@H]1c1ncc(-c2ccc(-c3ccc(-c4cnc([C@@H]5CCCN5C(=O)[C@H](NC(=O)N5CCOCC5)c5ccccc5)s4)cc3)cc2)s1)c1ccccc1)N1CCOCC1` reads 0.02 nM; that for `CC(C)C(=O)N[C@@H](C(=O)N1CCC[C@H]1c1ncc(-c2ccc(-c3ccc(-c4cnc([C@@H]5CCCN5C(=O)[C@H](NC(=O)C(C)C)c5ccccc5)s4)cc3)cc2)s1)c1ccccc1`, 0.009 nM.

On to `CS(=O)(=O)N[C@H](C(=O)N1CCC[C@H]1c1ncc(-c2ccc(-c3ccc(-c4cnc([C@@H]5CCCN5C(=O)[C@H](NS(C)(=O)=O)c5ccccc5)s4)cc3)cc2)s1)c1ccccc1`, for which the EC50 was determined as 149 nM. The same measure for `O=C(N[C@H](C(=O)N1CCC[C@H]1c1ncc(-c2ccc(-c3ccc(-c4cnc([C@@H]5CCCN5C(=O)[C@H](NC(=O)c5ccncc5)c5ccccc5)s4)cc3)cc2)s1)c1ccccc1)c1ccncc1`: 0.37 nM; for `CC(C)(C)[C@@H](NC(=O)C1CC1)C(=O)N1CCC[C@H]1c1ncc(-c2ccc(-c3ccc(-c4cnc([C@@H]5CCCN5C(=O)[C@H](NC(=O)C5CC5)C(C)(C)C)s4)cc3)cc2)s1`: 1600 nM. The same measure for `CCN(CC)CCC(=O)N[C@H](C(=O)N1CCC[C@H]1c1ncc(-c2ccc(-c3ccc(-c4cnc([C@@H]5CCCN5C(=O)[C@H](NC(=O)CCN(CC)CC)c5ccccc5)s4)cc3)cc2)s1)c1ccccc1`: 22 nM; for `O=C(Cc1ccccc1)N[C@H](C(=O)N1CCC[C@H]1c1ncc(-c2ccc(-c3ccc(-c4cnc([C@@H]5CCCN5C(=O)[C@H](NC(=O)Cc5ccccc5)c5ccccc5)s4)cc3)cc2)s1)c1ccccc1`: 2.9 nM; for `O=C(N[C@@H](C(=O)N1CCC[C@H]1c1ncc(-c2ccc(-c3ccc(-c4cnc([C@@H]5CCCN5C(=O)[C@H](NC(=O)c5cccnc5)c5ccccc5)s4)cc3)cc2)s1)c1ccccc1)c1cccnc1`: 0.13 nM.

As to `CC(=O)N[C@H](C(=O)N1CCC[C@H]1c1ncc(-c2ccc(-c3ccc(-c4cnc([C@@H]5CCCN5C(=O)[C@H](NC(C)=O)c5ccccc5)s4)cc3)cc2)s1)c1ccccc1`, the EC50 came out at 0.59 nM. Turning to `CC(C)C(=O)N[C@H](C(=O)N1CCC[C@H]1c1ncc(-c2ccc(-c3ccc(-c4cnc([C@@H]5CCCN5C(=O)[C@H](NC(=O)C(C)C)c5ccccc5)s4)cc3)cc2)s1)c1ccccc1`, the EC50 was 0.31 nM. Regarding `O=C(N[C@@H](C(=O)N1CCC[C@H]1c1ncc(-c2ccc(-c3ccc(-c4cnc([C@@H]5CCCN5C(=O)[C@H](NC(=O)c5ccncc5)c5ccccc5)s4)cc3)cc2)s1)c1ccccc1)c1ccncc1`, the EC50 came out at 0.011 nM.
